Calls of active or inactive are those of the source. No cut-off for these calls is given here.
Legend:
Glucocorticoid receptor [1] = molecular target: T1, Glucocorticoid receptor (Homo sapiens, UniProt P04150); test: Agonist activity at human GR expressed in CHO-K1 cells incubated for 20 hrs by luciferase reporter gene assay; type: cell-based
T1 sequence (P04150 whole entry): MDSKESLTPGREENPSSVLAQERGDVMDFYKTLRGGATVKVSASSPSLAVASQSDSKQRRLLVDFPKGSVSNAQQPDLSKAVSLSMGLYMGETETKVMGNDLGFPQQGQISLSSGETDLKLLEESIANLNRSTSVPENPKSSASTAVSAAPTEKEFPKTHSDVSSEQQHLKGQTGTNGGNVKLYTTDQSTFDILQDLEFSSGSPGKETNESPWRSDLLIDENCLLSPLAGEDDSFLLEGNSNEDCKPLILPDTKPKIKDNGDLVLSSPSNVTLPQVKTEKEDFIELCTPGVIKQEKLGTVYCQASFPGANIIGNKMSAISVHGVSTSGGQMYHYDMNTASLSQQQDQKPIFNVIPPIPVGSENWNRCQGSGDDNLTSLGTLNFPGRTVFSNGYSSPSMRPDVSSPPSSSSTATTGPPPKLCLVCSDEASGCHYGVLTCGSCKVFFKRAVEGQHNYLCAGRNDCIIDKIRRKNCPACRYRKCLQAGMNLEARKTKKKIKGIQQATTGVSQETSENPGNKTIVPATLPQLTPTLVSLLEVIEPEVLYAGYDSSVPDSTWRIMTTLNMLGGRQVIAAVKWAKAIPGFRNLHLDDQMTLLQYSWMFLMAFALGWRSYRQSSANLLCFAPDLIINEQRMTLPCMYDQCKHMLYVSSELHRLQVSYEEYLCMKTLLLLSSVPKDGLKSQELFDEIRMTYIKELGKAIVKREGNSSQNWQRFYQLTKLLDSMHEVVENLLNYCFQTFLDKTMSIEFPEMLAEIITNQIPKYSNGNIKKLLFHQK

Androgen receptor [2] = molecular target: T2, Androgen receptor (Homo sapiens, UniProt P10275); test: Agonist activity at AR in human MDA-MB-453 cells assessed as increase in CLDN8 gene expression at 111 to 333 nM incubated for 24 hrs by RT-qPCR method; type: cell-based; details: mda-mb-453, 24 h, 0.333 µM
T2 sequence (P10275 whole entry): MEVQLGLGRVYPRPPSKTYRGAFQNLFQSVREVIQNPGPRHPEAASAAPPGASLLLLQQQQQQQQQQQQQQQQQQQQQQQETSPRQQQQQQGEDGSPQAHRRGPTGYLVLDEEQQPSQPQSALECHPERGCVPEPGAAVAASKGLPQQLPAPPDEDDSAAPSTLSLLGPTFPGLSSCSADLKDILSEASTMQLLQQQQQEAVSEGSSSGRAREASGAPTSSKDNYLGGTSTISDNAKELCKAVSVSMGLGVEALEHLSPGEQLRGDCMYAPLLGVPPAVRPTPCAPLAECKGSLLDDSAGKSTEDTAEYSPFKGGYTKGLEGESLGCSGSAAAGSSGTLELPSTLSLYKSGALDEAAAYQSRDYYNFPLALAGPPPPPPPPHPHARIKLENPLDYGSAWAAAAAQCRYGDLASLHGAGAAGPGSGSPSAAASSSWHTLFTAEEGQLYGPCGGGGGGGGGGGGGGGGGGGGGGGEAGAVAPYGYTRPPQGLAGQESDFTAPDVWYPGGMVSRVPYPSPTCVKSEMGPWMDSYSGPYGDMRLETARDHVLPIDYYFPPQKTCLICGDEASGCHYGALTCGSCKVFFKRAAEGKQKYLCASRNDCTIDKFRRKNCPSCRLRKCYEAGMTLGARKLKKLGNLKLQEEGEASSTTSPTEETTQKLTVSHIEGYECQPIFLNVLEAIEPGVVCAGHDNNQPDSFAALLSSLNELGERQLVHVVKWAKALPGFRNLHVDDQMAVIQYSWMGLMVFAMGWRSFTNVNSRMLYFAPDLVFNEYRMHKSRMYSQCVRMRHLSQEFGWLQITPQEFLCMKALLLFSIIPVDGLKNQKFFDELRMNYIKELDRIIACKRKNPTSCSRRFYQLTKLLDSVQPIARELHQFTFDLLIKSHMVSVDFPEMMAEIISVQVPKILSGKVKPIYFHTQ

Androgen receptor [3] = molecular target: T2, Androgen receptor; test: Agonist activity at AR in human MDA-MB-453 cells assessed as increase in […] gene expression at 111 to 333 nM incubated for 24 hrs by RT-qPCR method; type: cell-based; details: mda-mb-453, 24 h, 0.333 µM
Glucocorticoid receptor [4] = molecular target: T1, Glucocorticoid receptor; test: Antagonist activity at GR in human PBMC assessed as reduction in dexamethasone-induced FKBP5 gene expression incubated for 6 hrs by RT-qPCR method; type: cell-based
Glucocorticoid receptor [5] = molecular target: T3, Glucocorticoid receptor (Rattus norvegicus, UniProt P06536); test: Antagonist activity at GR in rat PBMC assessed as reduction in dexamethasone-induced GILZ gene expression incubated for 24 hrs by RT-qPCR method; type: cell-based
T3 sequence (P06536 whole entry): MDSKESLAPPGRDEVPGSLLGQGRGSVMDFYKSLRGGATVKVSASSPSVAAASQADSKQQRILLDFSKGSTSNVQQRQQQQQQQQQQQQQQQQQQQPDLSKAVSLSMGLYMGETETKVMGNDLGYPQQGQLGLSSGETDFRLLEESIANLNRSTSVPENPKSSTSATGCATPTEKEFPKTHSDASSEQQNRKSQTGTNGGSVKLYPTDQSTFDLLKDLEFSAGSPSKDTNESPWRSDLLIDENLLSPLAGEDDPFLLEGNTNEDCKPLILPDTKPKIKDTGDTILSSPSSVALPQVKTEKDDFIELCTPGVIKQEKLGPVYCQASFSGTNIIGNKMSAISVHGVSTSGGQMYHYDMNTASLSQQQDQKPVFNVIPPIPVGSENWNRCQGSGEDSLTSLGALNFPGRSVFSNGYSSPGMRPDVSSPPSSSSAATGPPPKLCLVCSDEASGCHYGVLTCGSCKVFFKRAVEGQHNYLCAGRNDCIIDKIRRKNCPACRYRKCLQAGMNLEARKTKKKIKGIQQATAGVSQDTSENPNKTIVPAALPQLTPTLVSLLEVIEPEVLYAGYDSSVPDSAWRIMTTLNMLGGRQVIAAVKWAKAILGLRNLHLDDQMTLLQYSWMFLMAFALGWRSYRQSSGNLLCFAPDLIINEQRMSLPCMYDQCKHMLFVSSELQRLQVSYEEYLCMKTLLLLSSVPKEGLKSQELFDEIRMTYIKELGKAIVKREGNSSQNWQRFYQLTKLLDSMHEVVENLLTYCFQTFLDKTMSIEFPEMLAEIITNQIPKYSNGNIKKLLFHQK

OVCAR-5 = test: Potentiation of carboplatin-induced antitumor activity against human OVCAR5 cells xenografted in chronic cortisol treated nude mouse assessed as reduction in tumor volume at 75 mg/kg, po BID dosed via gavage co-treated with gencitabine at 60 mg/kg dosed every 3 days for 4 doses; type: functional, organism-based

Q: For CC(C)N(C)c1ccc([C@H]2C[C@@]3(C)[C@@H](CC[C@@]3(O)C#CC(C)(C)C)[C@@H]3CCC4=CC(=O)CC[C@@H]4[C@H]32)cc1, which EC50 (Glucocorticoid receptor [1]) is on record?
A: > 2500 nM

Q: And the Activity (Androgen receptor [2])?
A: Not Active

Q: And the Activity (Androgen receptor [3])?
A: Not Active

Q: And the IC50 (Glucocorticoid receptor [4])?
A: 19.5 nM

Q: What about the IC50 (Glucocorticoid receptor [5]) of the same compound?
A: 59.4 nM

Q: What about the Activity (OVCAR-5) of the same compound?
A: Active
